Measurements from patent US20110201815A1, “FUSED HETEROCYCLIC DERIVATIVE AND USE THEREOF FOR MEDICAL PURPOSES” (KISSEI PHARMACEUTICAL CO., LTD., priority 2008, published 2011).

Target: T1, Xanthine oxidase (from bovine milk, Sigma) (Bos taurus, UniProt P80457)
T1 construct: Xanthine oxidase (from bovine milk, Sigma); purchased Sigma; host or cells: bovine milk
Experiment: Xanthine oxidase inhibitory activity
Assay type: biochemical
Conditions: xanthine 200 μM added, 10 minutes at room temperature, absorbance at 290 nm
Experimental: Test compounds were dissolved in DMSO (Wako) at 40 mM concentration and then diluted to intended concentrations with phosphate-buffered saline (PBS).
Xanthine oxidase (from bovine milk, Sigma) was prepared with phosphate-buffered saline (PBS) at 0.02 units/mL, and then the solution was added to 96 well plates at 50 μL/well. In addition, test compounds diluted with PBS were added at 50 μL/well. Xanthine (Wako) at 200 μM prepared with PBS was added at 100 μL/well, and the reaction was measured for 10 minutes at room temperature. […] The absorbance under a condition without xanthine is 0%, and control without test compounds is 100%. Fifty % inhibitory concentration (IC50) of test compounds was calculated (Table 5). Ex. No in the table indicates example number.

T1 sequence (P80457 whole entry): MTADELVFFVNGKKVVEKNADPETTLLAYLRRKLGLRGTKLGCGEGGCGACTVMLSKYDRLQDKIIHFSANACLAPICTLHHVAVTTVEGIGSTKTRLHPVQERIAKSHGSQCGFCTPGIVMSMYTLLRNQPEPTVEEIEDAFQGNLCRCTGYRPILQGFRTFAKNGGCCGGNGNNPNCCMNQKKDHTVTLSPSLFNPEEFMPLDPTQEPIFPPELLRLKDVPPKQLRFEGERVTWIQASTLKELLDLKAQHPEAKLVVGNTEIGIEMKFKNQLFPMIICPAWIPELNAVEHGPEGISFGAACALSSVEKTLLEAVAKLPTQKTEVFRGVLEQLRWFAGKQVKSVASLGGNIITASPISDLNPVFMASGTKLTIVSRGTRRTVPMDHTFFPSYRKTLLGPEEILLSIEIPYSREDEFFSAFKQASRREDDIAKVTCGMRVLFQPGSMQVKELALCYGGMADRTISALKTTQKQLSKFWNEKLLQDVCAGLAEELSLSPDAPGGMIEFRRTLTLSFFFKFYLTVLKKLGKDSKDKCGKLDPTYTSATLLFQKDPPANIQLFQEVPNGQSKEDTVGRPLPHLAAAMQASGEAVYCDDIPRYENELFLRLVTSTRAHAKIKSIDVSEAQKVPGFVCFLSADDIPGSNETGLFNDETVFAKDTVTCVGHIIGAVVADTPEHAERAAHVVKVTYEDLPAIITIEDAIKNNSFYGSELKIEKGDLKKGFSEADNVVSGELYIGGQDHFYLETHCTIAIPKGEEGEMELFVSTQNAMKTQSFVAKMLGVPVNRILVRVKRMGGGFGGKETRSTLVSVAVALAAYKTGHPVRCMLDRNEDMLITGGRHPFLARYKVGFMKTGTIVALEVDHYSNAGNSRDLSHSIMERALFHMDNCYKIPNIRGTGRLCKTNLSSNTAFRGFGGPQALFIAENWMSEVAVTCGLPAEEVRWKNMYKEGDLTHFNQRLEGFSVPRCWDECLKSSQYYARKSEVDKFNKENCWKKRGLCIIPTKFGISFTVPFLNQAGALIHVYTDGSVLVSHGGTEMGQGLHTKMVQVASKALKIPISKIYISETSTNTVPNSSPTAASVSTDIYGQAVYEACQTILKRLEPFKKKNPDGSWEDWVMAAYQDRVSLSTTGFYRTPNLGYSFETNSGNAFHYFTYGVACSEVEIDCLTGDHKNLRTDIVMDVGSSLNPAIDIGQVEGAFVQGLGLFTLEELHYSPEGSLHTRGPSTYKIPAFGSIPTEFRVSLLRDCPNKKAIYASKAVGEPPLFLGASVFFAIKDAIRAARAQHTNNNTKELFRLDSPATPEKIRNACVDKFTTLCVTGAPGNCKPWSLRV

Structure (SMILES)	IC50 [nM]
Cc1nc(-c2cc(C#N)c3c(c2)c(C)cn3C)sc1C(=O)O [Example 1, 2-(7-Cyano-1,3-dimethyl-1H-indole-5-yl)-4-methylthiazole-5-carboxylic acid]	19
Cc1nc(-c2cc(C#N)c3[nH]ccc3c2)sc1C(=O)O [Example 13]	7
COCCn1ccc2cc(-c3cc(C(=O)O)ccn3)cc([N+](=O)[O-])c21 [Example 10]	114
Cn1ccc2cc(-c3cc(C(=O)O)ccn3)cc([N+](=O)[O-])c21 [Example 2, 2-(1-Methyl-7-nitro-1H-indole-5-yl) isonicotinic acid]	48
CC(C)Cn1ccc2cc(-c3cc(C(=O)O)ccn3)cc([N+](=O)[O-])c21 [Example 9]	13
Cc1nc(-c2cc(C#N)c3c(c2)c(C)cn3CC(C)C)sc1C(=O)O [Example 7]	31
Cc1nc(-c2cc([N+](=O)[O-])c3c(ccn3C)c2)sc1C(=O)O [Example 3, 4-Methyl-2-(1-methyl-7-nitro-1H-indole-5-yl) thiazole-5-carboxylic acid]	8
Cc1nc(-c2cc(C#N)c3c(c2)c(C)cn3C(C)C)sc1C(=O)O [Example 8]	10
N#Cc1cc(-c2cc(C(=O)O)ccn2)cc2cc[nH]c12 [Example 11, 2-(7-Cyano-1H-indole-5-yl) isonicotinic acid]	12
O=C(O)c1ccnc(-c2cc([N+](=O)[O-])c3occc3c2)c1 [Example 4, 2-(7-Nitrobenzofuran-5-yl) isonicotinic acid]	254
Cn1ccc2cc(-c3cc(C(=O)O)ccn3)cc(C#N)c21 [Example 12, 2-(7-Cyano-1-methyl-1H-indole-5-yl) isonicotinic acid]	17

Target: T2, human URAT1 (Homo sapiens, UniProt Q96S37)
T2 construct: expressed in transfected cells; host or cells: COS7 cells (RIKEN CELL BANK RCB0539), transient transfection with pcDNA3.1
T2 sequence (Q96S37 1-553): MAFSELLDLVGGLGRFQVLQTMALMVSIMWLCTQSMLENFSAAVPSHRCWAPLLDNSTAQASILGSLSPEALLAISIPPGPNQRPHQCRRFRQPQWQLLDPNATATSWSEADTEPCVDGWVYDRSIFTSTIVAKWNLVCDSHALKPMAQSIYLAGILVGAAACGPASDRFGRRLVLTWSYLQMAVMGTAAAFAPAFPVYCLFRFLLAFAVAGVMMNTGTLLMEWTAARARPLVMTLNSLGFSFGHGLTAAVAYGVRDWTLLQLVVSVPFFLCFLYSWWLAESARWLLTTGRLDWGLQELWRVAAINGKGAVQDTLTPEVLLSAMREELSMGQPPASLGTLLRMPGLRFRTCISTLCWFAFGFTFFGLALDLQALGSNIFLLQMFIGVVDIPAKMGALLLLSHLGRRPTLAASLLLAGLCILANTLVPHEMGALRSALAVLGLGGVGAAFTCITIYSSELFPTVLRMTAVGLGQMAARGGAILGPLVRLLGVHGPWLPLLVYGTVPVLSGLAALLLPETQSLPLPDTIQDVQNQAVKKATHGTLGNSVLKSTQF
Experiment: Inhibitory activity of uric acid transport with human URAT1 expressing cells
Assay type: cell-based
Conditions: COS-7; concentration of 100 μM; 14C-uric acid uptake in COS7 cells transiently expressing human URAT1, 20 μM uric acid, 5 minutes; read-out: Percent inhibition
Experimental: Full length human URAT1 cDNA (NCBI Accession No. NM_144585) was subcloned into expression vector, pcDNA3.1 (Invitrogen). Human URAT1 expression vector was transfected into COS7 cells (RIKEN CELL BANK RCB0539) using Lipofectamine 2000 (Invitrogen). COS7 cells were seeded in collagen-coated 24 well plates (Japan Becton Dickinson) at 90-95% confluency and cultured in D-MEM culture medium (Invitrogen) containing 10% fetal bovine serum (Sanko Junyaku) for 2 hours at 37° C. under the condition of 5% CO2. For 1 well, 2 μL of Lipofectamine 2000 was diluted in 50 μL of OPTI-MEM (Invitrogen) and allowed to stand at room temperature for 7 minutes (hereinafter referred to as Lipo2000-OPTI). For 1 well, 0.8 μg of human URAT1 expression vector was diluted in 50 μL of OPTI-MEM (Invitrogen) and combined gently with Lipo2000-OPTI. After standing at room temperature for 25 minutes, the mixture was added to COS7 cells at 100 μL/well. […]
All tests were performed on hot-plate at 37° C. […] After mixing, the radioactivity was counted in a liquid scintillation counter (PerkinElmer). The radioactivity in COS7 cells not transfected with URAT1 expression vector was also counted under the same condition as control. […]
A: Radioactivity in control B: Radioactivity in the case of addition of test compounds C: Radioactivity in COS7 cells not transfected with URAT1 expression vector

Structure (SMILES)	inhibition at 100 µM [%]
Cn1ccc2cc(-c3cc(C(=O)O)ccn3)cc([N+](=O)[O-])c21 [Example 2, 2-(1-Methyl-7-nitro-1H-indole-5-yl) isonicotinic acid]	> 80
